Measured values taken from patent publication US20130142830A1, “Tolerogenic Plasmacytoid Dendritic Cells Co-Expressing Cd8-Alpha And Cd8-Beta And Methods Of Inducing The Differentiation Of Regulatory T Cells Using Same” (UNIVERSITY OF SOUTHERN CALIFORNIA, priority 2011, published 2013).

Columns and labels:
[1] = tested on: naive OVA-specific CD4+ T cells; assay: In vitro co-culture of pDC subsets with naive OVA-specific CD4+ T cells, Foxp3 and IL-10 by flow cytometry; type: cell-based, mouse
Description: (a) Flow cytometry of intracellular expression of Foxp3 in CD4^+ T cells cultured with CD8α^− CD8β^− pDCs, CD8α^+ CD8β^− or CD8α^+ CD8β^+ pDCs. Sorted CD8α^− CD8β^−, CD8α^+ CD8β^− or CD8α^+ CD8β^+ pDCs were preincubated 12 hours with either medium or Galectin-3 (10 μg/ml). Cells were then washed and co-cultured with OVA-specific CD4^+ T cells at a 1:10 ratio (pDC:T CD4^+) for 5 days in presence of either OVA323-339 (1 μg/ml) and/or TGF-β (1 ng/ml) as indicated. Cells were subsequently stained with CD3, CD4 and CD25 antibodies fixed, permeabilized and stained with an anti-Foxp3 antibody before flow cytometry analysis. […]
(a) Gene expression of Aldhla1 Aldhla2, and Aldhla3 was assessed by real-time PCR in CD8α^−β^−, CD8α^+β^−, and CD8α^+β^+ pDCs from peripheral lymph nodes or in CD103^− and CD103^+ DCs from mesenteric lymph nodes of Fms-like tyrosine kinase 3-ligand (Flt3-L)-treated mice. […] P-values were calculated with Student's t-test. *P-value <0.05 (CD8α^+β^− pDC and CD8α^+β^+ pDC compared to CD8α^−β^−). ^#P-value <0.05 (CD103^+ cDC compared to CD103^− cDC). […] Cells were subsequently stained with anti-CD11c, anti-mPDCA1, anti-CD8α, and CD8αβ antibodies, and analyzed by flow cytometry to detect RALDH activity. […] Foxp3 expression was analyzed among CD3^+ CD4^+ CD25^+ cells; dot plots are representative of three independent experiments. […]

pDCs = assay: TLR7/TLR9 stimulation of pDC subsets (R848, CpG): co-stimulatory molecules, CD8 expression, IFN-α and IL-10 ELISA; type: cell-based, mouse; conditions: R848 10 μg/ml or CpG 10 μM, 18 hours
Description: (a) Plasmacytoid DCs were isolated by magnetic separation from lymph nodes of Flt3L-treated mice. The surface expression of the costimulation molecules CD80 and CD86 was assessed on CD8α^− CD8β^− pDCs, CD8α^+ CD8β^− pDCs and CD8α^+ CD8β^+ pDCs subtypes after 18 hours of stimulation with R848 (10 μg/ml) or CpG (10 μM). Data are representative of three similar experiments. Shaded histograms represent isotype control antibodies; dashed lines, specific staining of untreated cells; solid black lines, specific staining of CpG treated cells and solid grey lines, specific staining of R848 treated cells. […] Cells were then washed and stained with CD8α and CD8β^− antibodies, APC fluorescence was analyzed by flow cytometry in the CD8α^− CD8β^− pDCs, CD8α^+ CD8β^− pDCs or CD8α^+ CD8β^+ pDCs subpopulations. […] Data are average (mean fluorescence intensity (MFI) at 37° C.)−(MFI at 4° C.)±SEM of three separate experiments. […] The amount of radioactivity related to the number of cells was evaluated in a scintillation counter. […]
The main function of DCs is to prime naïve T cells by presenting antigen and providing additional signals through co-stimulatory molecules and production of cytokines. To address whether the populations of pDCs described herein differ in these functions, we stimulated them with TLR ligands and assessed the expression of co-stimulatory molecules along with the cytokine production. […]

DCs = assay: In vivo expansion of DCs by Flt3L-expressing tumor cells; parameters: species or system mouse; conditions: Flt3L treatment of BALB/c mice
Description: To test whether an in vivo expansion of the population of DCs affects the expression of CD8α or CD8β at the surface of pDCs, tumor cells expressing Flt3L were transferred into BALB/c mice. Flt3L acts on hematopoietic stem cells and controls their differentiation into DCs, this treatment expands the population of DCs by 15 to 20 fold after 14 days without activating the cells. […] The expression of CD8α and CD8β was assessed simultaneously on pDCs (CD11c^+ BST2^+ cells) and on conventional DCs (cDCs, CD11c^+ BST2^− cells). At the surface of cDCs, only CD8α expression was detected (FIG. 2a). […] Accordingly, with the surface phenotype, CD8α gene expression was detected in CD8α^+β^− pDCs while both CD8α and CD8β genes were overexpressed in the CD8α^+β^+ subset (FIG. 2b). As expected CD8β gene expression was never detected in cDCs (FIG. 2b). […] Our data from B2m knockout mice confirmed the presence of CD8α or CD8β pDC repertoire, similar to the level detected in the wild type mice (FIG. 2c). To further assess the expression of CD8α or CD8β at mRNA level, we performed real time quantitative PCR on the sorted subpopulation of pDCs from B2m knockout mice and confirmed the results obtained in FIG. 2c at the mRNA expression level (FIG. 2d). […]

Molecule: Galectin-3
- effect of Galectin-3 pre-incubation of pDCs on conversion of naive CD4+ T cells into Foxp3-expressing cells ([1]; Galectin-3 10 μg/ml, 12 hours pre-incubation, TGF-β present): boost the capacity of pDCs to convert naïve CD4^+ T cells into Foxp3-expressing cells

Molecule: CCOCc1nc2c(N)nc3ccccc3c2n1CC(C)(C)O [R848]
- expression of CD8α and CD8β on pDCs following TLR stimulation (pDCs): the expression of CD8α and CD8β decreases

Molecule: CN1c2cc3c(cc2N=C(c2ccc(C(=O)O)cc2)c2ccc4ccccc4c21)C(C)(C)CCC3(C)C [LE540]
- effect of RALDH inhibitor on conversion of naive CD4+ T cells by CD8α+β+ and CD8α+β− pDCs ([1]; LE540 1 μM with TGF-β): completely blocked the conversion of naïve CD4^+ T cells

B1: Flt3L: delivered by tumor cells expressing Flt3L; controls differentiation of hematopoietic stem cells into DCs (protein, UniProt P49771 27-235, looked up)
Fms-related tyrosine kinase 3 …: TQDCSFQHSPISSDFAVKIRELSDYLLQDYPVTVASNLQDEELCGGLWRLVLAQRWMERLKTVAGSKMQGLLERVNTEIHFVTKCAFQPPPSCLRFVQTNISRLLQETSEQLVALKPWITRQNFSRCLELQCQPDSSTLPPPWSPRPLEATAPTAPQPPLLLLLLLPVGLLLLAAAWCLHWQRTRRRTPRPGEQVPPVPSPQDLLLVEH
- level of expression of CD8α and CD8β on pDCs (DCs): does not significantly affect
